Experimental data: the NIST ThermoML archive (doi:10.1021/je049610v)

Experiments:
[1] = refractive index (Na D-line) (dimensionless); xn = mol fraction of the nth substance listed; details: 101 kPa, Liquid
[2] = xn = mol fraction of the nth substance listed; details: 101 kPa, Liquid

ClC(Cl)=C(Cl)Cl [tetrachloroethene] + COc1ccccc1
Details | mass density, 298.15 K [kg/m3] | mass density, 303.15 K [kg/m3] | mass density, 308.15 K [kg/m3] | refractive index, 298.15 K | refractive index, 303.15 K | refractive index, 308.15 K | speed of sound, 298.15 K [m/s] | viscosity, 298.15 K [mPa·s] | viscosity, 303.15 K [mPa·s] | viscosity, 308.15 K [mPa·s]
[1], x2 = 0 | – | – | – | 1.5036 | 1.501 | 1.498 | – | – | – | –
[1], x2 = 0.0979 | – | – | – | 1.5044 | 1.5015 | 1.4986 | – | – | – | –
[1], x2 = 0.1962 | – | – | – | 1.5053 | 1.5023 | 1.4993 | – | – | – | –
[1], x2 = 0.3035 | – | – | – | 1.5065 | 1.5034 | 1.5004 | – | – | – | –
[1], x2 = 0.4024 | – | – | – | 1.5075 | 1.5044 | 1.5014 | – | – | – | –
[1], x2 = 0.5044 | – | – | – | 1.5086 | 1.5056 | 1.5026 | – | – | – | –
[1], x2 = 0.6045 | – | – | – | 1.5099 | 1.5069 | 1.504 | – | – | – | –
[1], x2 = 0.7033 | – | – | – | 1.5111 | 1.5083 | 1.5054 | – | – | – | –
[1], x2 = 0.8036 | – | – | – | 1.5124 | 1.5096 | 1.5068 | – | – | – | –
[1], x2 = 0.8974 | – | – | – | 1.5135 | 1.5101 | 1.508 | – | – | – | –
[2], x2 = 0 | 1614.7 | 1606.9 | 1599 | – | – | – | 1038 | 0.861 | 0.817 | 0.782
[2], x2 = 0.0979 | 1548.6 | 1540.9 | 1533.6 | – | – | – | 1065 | 0.859 | 0.818 | 0.776
[2], x2 = 0.1962 | 1483.4 | 1476.1 | 1469 | – | – | – | 1094 | 0.854 | 0.813 | 0.77
[2], x2 = 0.3035 | 1413.9 | 1407 | 1400.4 | – | – | – | 1127 | 0.854 | 0.811 | 0.767
[2], x2 = 0.4024 | 1350.9 | 1343.5 | 1337.9 | – | – | – | 1159 | 0.861 | 0.815 | 0.77
[2], x2 = 0.5044 | 1286.9 | 1280.5 | 1274.6 | – | – | – | 1195 | 0.874 | 0.825 | 0.776
[2], x2 = 0.6045 | 1225.3 | 1219.3 | 1213.5 | – | – | – | 1232 | 0.892 | 0.839 | 0.787
[2], x2 = 0.7033 | 1165.1 | 1159.6 | 1154.1 | – | – | – | 1271 | 0.909 | 0.855 | 0.799
[2], x2 = 0.8036 | 1105 | 1099.6 | 1094.5 | – | – | – | 1314 | 0.935 | 0.877 | 0.817
[2], x2 = 0.8974 | 1049.2 | 1044.8 | 1039.2 | – | – | – | 1359 | 0.961 | 0.898 | 0.835

C1COCCO1 [1,4-dioxane] + COc1ccccc1
x2 = 0
Details | mass density, 298.15 K [kg/m3] | mass density, 303.15 K [kg/m3] | mass density, 308.15 K [kg/m3] | refractive index, 298.15 K | refractive index, 303.15 K | refractive index, 308.15 K | speed of sound, 298.15 K [m/s] | viscosity, 298.15 K [mPa·s] | viscosity, 303.15 K [mPa·s] | viscosity, 308.15 K [mPa·s]
[1] | – | – | – | 1.4181 | 1.4176 | 1.4141 | – | – | – | –
[2] | 1028.3 | 1023.1 | 1017.8 | – | – | – | 1345 | 1.415 | 1.171 | 1.068

COc1ccccc1 [anisole] + CN(C)C=O
Details | mass density, 298.15 K [kg/m3] | mass density, 303.15 K [kg/m3] | mass density, 308.15 K [kg/m3] | refractive index, 298.15 K | refractive index, 303.15 K | refractive index, 308.15 K | speed of sound, 298.15 K [m/s] | viscosity, 298.15 K [mPa·s] | viscosity, 303.15 K [mPa·s] | viscosity, 308.15 K [mPa·s]
[1], x1 = 0.1004 | – | – | – | 1.4407 | 1.4381 | 1.4356 | – | – | – | –
[1], x1 = 0.196 | – | – | – | 1.4513 | 1.4487 | 1.4462 | – | – | – | –
[1], x1 = 0.2939 | – | – | – | 1.4614 | 1.4587 | 1.4558 | – | – | – | –
[1], x1 = 0.3966 | – | – | – | 1.4708 | 1.4683 | 1.4656 | – | – | – | –
[1], x1 = 0.4975 | – | – | – | 1.4798 | 1.4771 | 1.4744 | – | – | – | –
[1], x1 = 0.5983 | – | – | – | 1.4878 | 1.4852 | 1.4825 | – | – | – | –
[1], x1 = 0.6953 | – | – | – | 1.4953 | 1.4928 | 1.4902 | – | – | – | –
[1], x1 = 0.7984 | – | – | – | 1.5024 | 1.5 | 1.4973 | – | – | – | –
[1], x1 = 0.9042 | – | – | – | 1.5099 | 1.5071 | 1.5043 | – | – | – | –
[1], x1 = 1 | – | – | – | 1.5148 | 1.5124 | 1.5092 | – | – | – | –
[2], x1 = 0.1004 | 951 | 946.6 | 942.3 | – | – | – | 1456 | 0.833 | 0.787 | 0.739
[2], x1 = 0.196 | 957 | 952.7 | 948.2 | – | – | – | 1451 | 0.859 | 0.81 | 0.76
[2], x1 = 0.2939 | 962.9 | 958.2 | 953.9 | – | – | – | 1445 | 0.886 | 0.833 | 0.78
[2], x1 = 0.3966 | 968.5 | 964.1 | 959.7 | – | – | – | 1438 | 0.912 | 0.856 | 0.799
[2], x1 = 0.4975 | 973.4 | 968.8 | 964.4 | – | – | – | 1432 | 0.937 | 0.878 | 0.819
[2], x1 = 0.5983 | 977.6 | 973.2 | 968.7 | – | – | – | 1427 | 0.957 | 0.897 | 0.836
[2], x1 = 0.6953 | 981.2 | 976.9 | 972.4 | – | – | – | 1422 | 0.977 | 0.913 | 0.851
[2], x1 = 0.7984 | 984.7 | 980.3 | 975.9 | – | – | – | 1418 | 0.994 | 0.928 | 0.863
[2], x1 = 0.9042 | 987.7 | 983.3 | 978.5 | – | – | – | 1413 | 1.006 | 0.938 | 0.871
[2], x1 = 1 | 988.9 | 984.1 | 979.4 | – | – | – | 1410 | 0.992 | 0.919 | 0.853

COc1ccccc1 [anisole] + CCOC(=O)C(=O)OCC
x1 = 1
Details | mass density, 298.15 K [kg/m3] | mass density, 303.15 K [kg/m3] | mass density, 308.15 K [kg/m3] | refractive index, 298.15 K | refractive index, 303.15 K | refractive index, 308.15 K | speed of sound, 298.15 K [m/s] | viscosity, 298.15 K [mPa·s] | viscosity, 303.15 K [mPa·s] | viscosity, 308.15 K [mPa·s]
[1] | – | – | – | 1.5148 | 1.5124 | 1.5092 | – | – | – | –
[2] | 988.9 | 984.1 | 979.4 | – | – | – | 1410 | 0.992 | 0.918 | 0.853

COc1ccccc1 [anisole] + C[S+](C)[O-]
Details | mass density, 298.15 K [kg/m3] | mass density, 303.15 K [kg/m3] | mass density, 308.15 K [kg/m3] | refractive index, 298.15 K | refractive index, 303.15 K | refractive index, 308.15 K | speed of sound, 298.15 K [m/s] | viscosity, 298.15 K [mPa·s] | viscosity, 303.15 K [mPa·s] | viscosity, 308.15 K [mPa·s]
[1], x1 = 0.0938 | – | – | – | 1.4817 | 1.4772 | 1.4727 | – | – | – | –
[1], x1 = 0.2016 | – | – | – | 1.4878 | 1.4853 | 1.4828 | – | – | – | –
[1], x1 = 0.3025 | – | – | – | 1.4929 | 1.4901 | 1.4873 | – | – | – | –
[1], x1 = 0.3987 | – | – | – | 1.4962 | 1.4935 | 1.4906 | – | – | – | –
[1], x1 = 0.5074 | – | – | – | 1.4996 | 1.4974 | 1.4952 | – | – | – | –
[1], x1 = 0.594 | – | – | – | 1.5031 | 1.5006 | 1.498 | – | – | – | –
[1], x1 = 0.6956 | – | – | – | 1.5069 | 1.5043 | 1.5017 | – | – | – | –
[1], x1 = 0.7988 | – | – | – | 1.5105 | 1.5075 | 1.5046 | – | – | – | –
[1], x1 = 0.8933 | – | – | – | 1.5124 | 1.5096 | 1.5069 | – | – | – | –
[1], x1 = 1 | – | – | – | 1.5148 | 1.5124 | 1.5092 | – | – | – | –
[2], x1 = 0.0938 | 1081.5 | 1077 | 1072.3 | – | – | – | 1487 | 1.836 | 1.683 | 1.529
[2], x1 = 0.2016 | 1066.7 | 1062.1 | 1057.6 | – | – | – | 1477 | 1.691 | 1.549 | 1.407
[2], x1 = 0.3025 | 1054.4 | 1049.9 | 1045.3 | – | – | – | 1468 | 1.565 | 1.438 | 1.31
[2], x1 = 0.3987 | 1043.6 | 1039.2 | 1034.7 | – | – | – | 1462 | 1.466 | 1.347 | 1.228
[2], x1 = 0.5074 | 1032.5 | 1027.9 | 1023.6 | – | – | – | 1454 | 1.369 | 1.268 | 1.166
[2], x1 = 0.594 | 1024.1 | 1019.7 | 1015.1 | – | – | – | 1445 | 1.318 | 1.219 | 1.119
[2], x1 = 0.6956 | 1014.7 | 1010.3 | 1005.7 | – | – | – | 1437 | 1.249 | 1.152 | 1.054
[2], x1 = 0.7988 | 1005.5 | 1001.4 | 996.7 | – | – | – | 1428 | 1.157 | 1.073 | 0.989
[2], x1 = 0.8933 | 997.4 | 992.8 | 988.5 | – | – | – | 1421 | 1.077 | 1.004 | 0.931
[2], x1 = 1 | 988.9 | 984.1 | 979.4 | – | – | – | 1410 | 0.992 | 0.919 | 0.853

COc1ccccc1 [anisole] + OCCCl
x1 = 1
Details | mass density, 298.15 K [kg/m3] | mass density, 303.15 K [kg/m3] | mass density, 308.15 K [kg/m3] | refractive index, 298.15 K | refractive index, 303.15 K | refractive index, 308.15 K | speed of sound, 298.15 K [m/s] | viscosity, 298.15 K [mPa·s] | viscosity, 303.15 K [mPa·s] | viscosity, 308.15 K [mPa·s]
[1] | – | – | – | 1.5148 | 1.5124 | 1.5092 | – | – | – | –
[2] | 988.9 | 984.1 | 979.4 | – | – | – | 1410 | 0.992 | 0.919 | 0.853
